Experimental data reported in patent US5612217A, “Streptomyces sp. MA 7074 (ATCC 55605) used for microbial synthesis of HIV protease inhibitors” (Merck & Co., Inc., priority 1994, dated 1997).

Target: T1, HIV protease (Human immunodeficiency virus type 1 group M subtype B, UniProt P03366)
T1 construct: the protease expressed in Eschericia coli; made in house; host or cells: Escherichia coli
Assay: Assay for inhibition of microbial expressed HIV protease (in vitro, peptide substrate cleavage, HPLC)
Assay type: biochemical
Details: for % Potency Relative to Compound J, Based on HPLC / % Potency Relative to Compound J, Based On Nominal Wt.: IC50 of Compound J / IC50 of test compound x 100; for % Potency Relative to Compound J, Based on HPLC: concentration checked by HPLC using J as standard; for % Potency Relative to Compound J, Based On Nominal Wt.: dilution based on nominal weight
Protocol: Inhibition studies of the reaction of the protease expressed in Eschericia coli with a peptide substrate [Val-Ser-Gln-Asn-(betanapthyl)Ala-Pro-Ile-Val, 0.5 mg/mL at the time the reaction is initiated] were in 50 mM Na acetate, pH 5.5, at 30° C. for 1 hour. Various concentrations of inhibitor in 1.0 μl DMSO were added to 25 μl of the peptide solution in water. The reaction is initiated by the addition of 15 μl of 0.33 nM protease (0.11 ng) in a solution of 0.133M Na acetate pH 5.5 and 0.1% bovine serum albumin. The reaction was quenched with 160 μl of 5% phosphoric acid. Products of the reaction were separated by HPLC (VYDAC wide pore 5 cm C-18 reverse phase, acetonitrile gradient, 0.1% phosphoric acid). The extent of inhibition of the reaction was determined as IC50 from the peak heights of the products.
Seven Compound J bioconversion products were assayed for in vitro HIV protease inhibitory by the assay for inhibition of microbial expressed HIV Protease, protocol given above. Two of the bioconversion products were isolated from MA7074 incubations, Compounds B1 and F. The IC50 of the parent Compound J was divided by the IC50 of each test compound and multiplied by 100 in order to calculate the percent potency of each compound relative to J.
In some cases, the dilution of the test compound was based on nominal weight. In other cases, especially when the weight was less than 250 μg, the concentration was checked by HPLC using J as standard.

Structure (SMILES) | % Potency Relative to Compound J, Based on HPLC | % Potency Relative to Compound J, Based On Nominal Wt. | HIV-protease activity (in words) (qualitative statement, compared with Compound J where stated)
CC(C)(C)NC(=O)[C@@H]1CN(Cc2cccnc2)CCN1C[C@@H](O)C[C@@H](Cc1ccc(O)cc1)C(=O)N[C@H]1c2ccccc2C[C@H]1O [D] | 31% | 3.1% | –
CC(C)(C)NC(=O)[C@@H]1CN(Cc2cccnc2)CCN1C[C@@H](O)C[C@@H](Cc1ccccc1)C(=O)N[C@H]1c2ccccc2[C@H](O)[C@H]1O [A] | – | 27% | –
CC(C)(C)NC(=O)[C@@H]1CN(Cc2cccnc2)CCN1C[C@@H](O)C[C@@H](Cc1ccccc1)C(=O)N[C@H]1c2ccccc2[C@@H](O)[C@H]1O [Compound B1] | 115% | – | –
CC(C)(C)NC(=O)[C@@H]1CN(Cc2ccc[n+]([O-])c2)CCN1C[C@@H](O)C[C@@H](Cc1ccccc1)C(=O)N[C@H]1c2ccccc2C[C@H]1O [E] | – | 34% | –
CC(C)(C)NC(=O)[C@@H]1CN(Cc2cccnc2)CCN1C[C@@H](O)C[C@@H](Cc1ccccc1)C(=O)N[C@H]1c2ccccc2C(=O)[C@H]1O [Compound F] | – | 16% | less HIV-protease activity than Compound J
